According to patent US6375926B1, “Labelled elastase inhibitors” (Amersham International PLC, priority 1996, dated 2002):

Tests used:
[1] = tested on: mixed human red/white cells (granulocytes, monocytes + lymphocytes, erythrocytes); assay: In vitro cell uptake in mixed human red/white cells; format: cell-based; details: radiolabelled compound
Procedure: The radioactive compound was also incubated with an isolated leucocyte preparation to which an erythrocyte fraction had been added back. The packed erythrocytes obtained after blood sedimentation were washed twice with HBSS and then resuspended in their original blood volume with HBSS. Leucocytes obtained from 30 ml blood were resuspended in 0.5 ml erythrocyte suspension and 0.5 ml CFP. The cell suspension was then incubated with compound as above. Analysis of the distribution of activity in the cell pellet in the presence of red blood cells was carried out using Ficoll-Hypaque discontinuous density gradients (densities 1.04, 1.077 and 1.119 g/ml Histopaque steps).

[2] = tested on: isolated human white cells (granulocytes; monocytes + lymphocytes); assay: In vitro cell uptake in isolated human white cells; format: cell-based; details: for selectivity for granulocytes over a mixture of monocytes/lymphocytes: approximately equivalent numbers of monocytes/lymphocytes and granulocytes present; for % uptake in Gran. (granulocytes), WHITE CELLS / % uptake in Mon. (monocytes + lymphocytes), WHITE CELLS: isolated human white cells, 30 minutes at 37° C., radiolabelled compound
Procedure: Fresh blood (30-120 ml) was anticoagulated with 1.5% ACD solution and sedimented by addition of 2 ml Hespan per 10 ml blood for 90 minutes at room temperature. The leucocyte rich platelet rich plasma supernatant was removed and centrifuged at 150 g for 5 minutes, yielding a leucocyte rich pellet and platelet rich plasma (PRP). The PRP was centrifuged at 4000 g to pellet the platelets leaving a cell free plasma (CFP). The leucocyte pellet was resuspended in a 50:50 mixture of HBSS and CFP and incubated with the radioactive compound for 30 minutes at 37° C. Free radioactive material was then removed from the cells by addition of an excess of HBSS:CFP and centrifugation of the leucocytes at 150 g for 7 minutes. The supernatant and cell pellet were taken for radioactive counting for calculation of percentage cell uptake. The distribution of radioactivity within the cell pellet was assessed by separation of the cell types using Percoll density gradient centrifugation (38%, 55% and 73% Percoll in HBSS step gradients). The residual plasma and free activity was recovered from the top of the gradient, the mononuclear cells (lymphocytes and monocytes) from the interface between 38% and 55%, and the granulocytes were recovered from the interface between 55% and 73% Percoll.

[3] = In vivo stability of iodinated HLE inhibitors (thyroid uptake); parameters: species or system male Wistar rats; details: i.v. injection
Procedure: The in vivo stability of radioiodinated HLE inhibitors was monitored by determination of the percentage uptake in the thyroid as a function of time after administration. Thus radioiodinated compounds and ^123I free iodide were injected into male Wistar rats. The percentage of injected dose distributing to the thyroid was calculated by dissection at 4 and 24 hours post injection and counting.

[4] = target: T1, HLE (human leucocyte elastase) (Homo sapiens, UniProt P08246); assay: Measurement of HLE inhibition potency (kinact/Ki); format: biochemical; parameters: Potency (M/sec), kinact/Ki: unit not given here; details: for kinact/Ki (human elastase): as listed in Table 24 beside the radiolabelled compounds
T1 sequence (P08246 30-267): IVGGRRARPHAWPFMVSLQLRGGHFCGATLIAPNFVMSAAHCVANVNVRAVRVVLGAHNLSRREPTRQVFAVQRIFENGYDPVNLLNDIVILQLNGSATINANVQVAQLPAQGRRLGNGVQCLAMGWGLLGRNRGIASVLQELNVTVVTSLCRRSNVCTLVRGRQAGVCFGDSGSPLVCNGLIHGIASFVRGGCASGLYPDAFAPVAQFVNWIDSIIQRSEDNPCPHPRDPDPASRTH
Procedure: Inhibitor potency against HLE is described by the parameter kinact/Ki as previously reported [Knight et al., Biochem., 8160-8170, (1992)]. Lyophilised enzyme was reconstituted with TrisHCl buffer, 100 mM, 0.5M NaCl at 0.05 units/ml (approximately nanomolar concentration) in a final reaction volume of 1 ml to which was added methoxysucc-ala-ala-pro-val-pNA substrate (1 mM) and the elastase inhibitor dissolved in DMSO. The reaction was monitored by detecting the change of absorbance at 410 nm (hydrolysis of the substrate releasing p-nitroaniline) over a timescale of 25 minutes. Values of kinact/Ki were estimated according to the Knight et al method.

[5] = tested on: human whole blood (granulocytes, monocytes + lymphocytes, erythrocytes); assay: In vitro cell uptake in human whole blood; format: cell-based; details: 37° C. for 1 hour, radiolabelled compound
Procedure: The radioactive compound was added to 1 ml whole blood anticoagulated with ACD and incubated at 37° C. for 1 hour. The blood was diluted with HBSS and the cellular component separated by centrifugation. Distribution of activity within the cellular pellet was assessed by separation of cell fractions on Ficoll-Hypaque gradients as above.

[6] = tested on: E. coli infected rats (experimental abscess); assay: In vivo biodistribution in rats bearing experimental abscesses, direct intravenous injection; parameters: species or system male Wistar rats; details: for Relative conc. In infected area / Infected/normal / Infected/blood: directly injected i.v.; for Relative conc. In infected area: % injected dose in a % body weight; for Infected/normal: ratio of % id/g infected area to contralateral thigh; for Infected/blood: ratio of %/g infected area to blood
Procedure: (§1) The model: into the right gracilis (thigh) muscle of male Wistar rats (250-325 g) were injected 1 ml/kg of an E. coli suspension containing >> 5×10^8/ml organisms.
(§2) Validation: the model was validated for use in the development of diagnostic imaging agents of infection/inflammation by the intravenous injection of ^99mTc-HMPAO ex-vivo labelled human wbc or ^67Ga-citrate when the abscesses were 24 hours old. Animals were dissected between 4 and 24 hours after injection. ^99mTc-labelled red blood cells were used as a negative control.
The animals were sacrificed at either 4 or 24 hours post injection and relevant tissues dissected.

[7] = tested on: E. coli infected rats (experimental abscess); assay: In vivo biodistribution of ex vivo labelled human leucocytes in E. coli infected rats; parameters: species or system male Wistar rats; details: ex vivo labelled human leucocytes injected i.v.
Procedure: as §1, §2
Screening of Ex vivo labelled human leucocytes in E. coli infected rats: A mixed population of human leucocytes was incubated with elastase inhibitor for 30 minutes at 37° C. The cells were then spun down and resuspended in a known volume of rat plasma for intravenous injection into rats bearing a 24 hour old abscess. Animals were dissected at 4 and 24 hours post injection.

[8] = measured for non-radioactive iodine-labelled compounds and unlabelled chelate conjugates

Row | SMILES | % dose in Thyroid ([3]; 4 hours) [% dose] | % dose in Thyroid ([3]; 24 hours) [% dose] | Potency (1/(M·s)), kinact/Ki [4, 8] [M⁻¹ s⁻¹] | % uptake in Eryth. (erythrocytes), WHITE AND RED CELLS [1] [%] | % uptake in Gran. (granulocytes), WHITE AND RED CELLS [1] [%] | % uptake in Mon. (monocytes + lymphocytes), WHITE AND RED CELLS [1] [%] | selectivity for granulocytes over a mixture of monocytes/lymphocytes [2] | % uptake in Gran. (granulocytes), WHITE CELLS [2] [%] | % uptake in Mon. (monocytes + lymphocytes), WHITE CELLS [2] [%] | % uptake in Eryth. (erythrocytes), WHOLE BLOOD [5] [%] | % uptake in Gran. (granulocytes), WHOLE BLOOD [5] [%] | % uptake in Mon. (monocytes + lymphocytes), WHOLE BLOOD [5] [%] | other results
1 | CCC1(CC)C(=O)N(C(=O)NCCc2ccc(O)c(I)c2)C1S(=O)(=O)CCOC (stereo not drawn) [Compound 16, 4-[2-Methoxyethylsulfonyl]-1-[(4-hydroxy)(3-iodo)phenylethylaminocarbonyl]-3,3-diethyl-2-azetidinone] | 0.3 | 2.4 | – | 0.6 | 0.3 | 0.6 | some degree of selectivity for granulocytes | 0.55 | 0.0 | 0.2 | 0.2 | 0.6 | kinact/KI ([4]; measured for non-radioactive iodine-labelled compounds and unlabelled chelate conjugates, read-out: Potency (M/sec), kinact/Ki): 2700 M⁻¹ s⁻¹
2 | CCC[C@@H](NC(=O)N1C(=O)C(CC)(CC)[C@@H]1Oc1cccnc1)c1ccc(I)cc1 [Compound 28, 4S-(Pyridyl-3-oxy)-1-[(R-α-n-propyl)-(4-iodo)benzylaminocarbonyl]-3,3-diethyl-2-azetidinone] | – | – | 650000 | 17.5 | 41.9 | 14.9 | some degree of selectivity for granulocytes | 67.4 | 14.8 | – | – | – | Relative conc. In infected area ([6]; 4 hrs post injection): 0.22; Infected/normal ([6]; 4 hrs post injection): 1.3; Infected/blood ([6]; 4 hrs post injection): 1.1; Relative conc. In infected area ([6]; 24 hrs post injection): 0.12; Infected/normal ([6]; 24 hrs post injection): 1.2; Infected/blood ([6]; 24 hrs post injection): 1.2; Infected/blood ([7]; 4 hrs post injection): 0.9; Infected/normal ([7]; 4 hrs post injection): 1.5; Relative conc. In infected area ([7]; 4 hrs post injection): 0.45; Infected/blood ([7]; 24 hrs post injection): 0.9; Infected/normal ([7]; 24 hrs post injection): 1.2; Relative conc. In infected area ([7]; 24 hrs post injection): 0.16; kinact/Ki (human elastase) [4]: 650000
3 | [123IH] [[^123I]-iodide, reference compound] | 6.8 | 22.2 | – | – | – | – | – | – | – | – | – | – | –
4 | CCC1(CC)C(=O)N(C(=O)NCc2ccc(I)cc2)C1Oc1ccc(C(=O)N2CCN(C)CC2)cc1 (single isomer, unassigned) [Compound 4a] | 0.1 | 0.3 | – | 8.4 | 53.2 | 14.6 | some degree of selectivity for granulocytes | 68.6 | 14.3 | – | – | – | uptake in the infected region compared with the ^99mTc-rbc control ([6]; ^123I-labelled, rat model of inflammation/infection): significantly better uptake in the infected region; Relative conc. In infected area ([6]; 4 hrs post injection): 0.52; Infected/normal ([6]; 4 hrs post injection): 1.0; Infected/blood ([6]; 4 hrs post injection): 0.62; Relative conc. In infected area ([6]; 24 hrs post injection): 0.28; Infected/normal ([6]; 24 hrs post injection): 1.6; Infected/blood ([6]; 24 hrs post injection): 0.53; kinact/Ki (human elastase) [4]: 36000; Potency (M/sec), kinact/Ki [4, 8]: 63,000

The next lines start with results.

Row | % dose in Thyroid ([3]; 4 hours) [% dose] | % dose in Thyroid ([3]; 24 hours) [% dose] | Potency (1/(M·s)), kinact/Ki [4, 8] [M⁻¹ s⁻¹] | SMILES | % uptake in Eryth. (erythrocytes), WHITE AND RED CELLS [1] [%] | % uptake in Gran. (granulocytes), WHITE AND RED CELLS [1] [%] | % uptake in Mon. (monocytes + lymphocytes), WHITE AND RED CELLS [1] [%] | selectivity for granulocytes over a mixture of monocytes/lymphocytes [2] | % uptake in Gran. (granulocytes), WHITE CELLS [2] [%] | % uptake in Mon. (monocytes + lymphocytes), WHITE CELLS [2] [%] | % uptake in Eryth. (erythrocytes), WHOLE BLOOD [5] [%] | % uptake in Gran. (granulocytes), WHOLE BLOOD [5] [%] | % uptake in Mon. (monocytes + lymphocytes), WHOLE BLOOD [5] [%] | other results
5 | – | – | 2500 | CCC1(CC)C(=O)N(C(=O)NCCC(=O)NCCN(CCNC(C)(C)C(C)=NO)CCNC(C)(C)C(C)=NO)C1Oc1ccc(C(=O)N2CCN(C)CC2)cc1 (racemic) [Compound 51, Conjugate Between Chelate, 3,3,11,11-Tetramethyl-7-aminomethyl-4,7,10-triazatridecane-2,12-dionedioxime and 4-[4-[[(4-Methyl)piperazin-1-yl]carbonyl]phenoxy]-1-[(2-carboxy)ethylaminocarbonyl]-3,3-diethyl-2-azetidinone] | 11.2 | 1.9 | 13.4 | some degree of selectivity for granulocytes | 3.9 | 0.4 | 0.8 | 1.7 | 28.7 | –
6 | – | – | 7800 | CCC1(CC)C(=O)N(C(=O)NCc2ccccc2)C1Oc1ccc(C(=O)NCCN(CCNC(C)(C)C(C)=NO)CCNC(C)(C)C(C)=NO)cc1 (racemic) [Compound 52, Conjugate Between Chelate, 3,3,11,11-tetramethyl-7-aminomethyl-4,7,10-triazatridecane-2,12-dionedioxime and 4-[(4-carboxy)phenoxy]-1-[benzylaminocarbonyl]-3,3-diethyl-2-azetidinone] | 7.1 | 1.8 | 8.2 | some degree of selectivity for granulocytes | 1.9 | 0.8 | 37.4 | 9.1 | 10.9 | –
7 | – | – | 20000 | CCC1(CC)C(=O)N(C(=O)NCc2ccccc2)C1Oc1ccc(C(=O)NCC(C)(CNC(C)(C)C(C)=NO)CNC(C)(C)C(C)=NO)cc1 (racemic) [Compound 49, Conjugate Between Chelate, 3,3,6,9,9-pentamethyl-6-aminomethyl-4,8-diazaundecane-2,10-dionedioxime and 4-[(4-carboxy)phenoxy]-1-[benzylaminocarbonyl]-3,3-diethyl-2-azetidinone] | 18.0 | 17.5 | 13.9 | some degree of selectivity for granulocytes | 47.3 | 10.1 | 14.3 | 6.9 | 24.6 | –
